This note sets out measurements from patent US7902375B2, “5-phenyl-4-methyl-thiazol-2-yl-amine derivatives as inhibitors of phosphatidylin ositol 3 kinase enzymes (PI13) for treatment of inflammatory diseases” (Novartis AG, priority 2003, dated 2011).

In the assay the target is T1, human PI3Kγ (recombinant GST-p110γ) (Homo sapiens, UniProt P48736).
T1 construct: Residues 38-1102 of human PI3Kγ are subcloned into the BamH1 and EcoR1 sites of the transfer vector pAcG2T; made in house; host or cells: Sf9 (Spodoptera frugiperda) insect cells, baculovirus
T1 sequence (P48736 38-1102): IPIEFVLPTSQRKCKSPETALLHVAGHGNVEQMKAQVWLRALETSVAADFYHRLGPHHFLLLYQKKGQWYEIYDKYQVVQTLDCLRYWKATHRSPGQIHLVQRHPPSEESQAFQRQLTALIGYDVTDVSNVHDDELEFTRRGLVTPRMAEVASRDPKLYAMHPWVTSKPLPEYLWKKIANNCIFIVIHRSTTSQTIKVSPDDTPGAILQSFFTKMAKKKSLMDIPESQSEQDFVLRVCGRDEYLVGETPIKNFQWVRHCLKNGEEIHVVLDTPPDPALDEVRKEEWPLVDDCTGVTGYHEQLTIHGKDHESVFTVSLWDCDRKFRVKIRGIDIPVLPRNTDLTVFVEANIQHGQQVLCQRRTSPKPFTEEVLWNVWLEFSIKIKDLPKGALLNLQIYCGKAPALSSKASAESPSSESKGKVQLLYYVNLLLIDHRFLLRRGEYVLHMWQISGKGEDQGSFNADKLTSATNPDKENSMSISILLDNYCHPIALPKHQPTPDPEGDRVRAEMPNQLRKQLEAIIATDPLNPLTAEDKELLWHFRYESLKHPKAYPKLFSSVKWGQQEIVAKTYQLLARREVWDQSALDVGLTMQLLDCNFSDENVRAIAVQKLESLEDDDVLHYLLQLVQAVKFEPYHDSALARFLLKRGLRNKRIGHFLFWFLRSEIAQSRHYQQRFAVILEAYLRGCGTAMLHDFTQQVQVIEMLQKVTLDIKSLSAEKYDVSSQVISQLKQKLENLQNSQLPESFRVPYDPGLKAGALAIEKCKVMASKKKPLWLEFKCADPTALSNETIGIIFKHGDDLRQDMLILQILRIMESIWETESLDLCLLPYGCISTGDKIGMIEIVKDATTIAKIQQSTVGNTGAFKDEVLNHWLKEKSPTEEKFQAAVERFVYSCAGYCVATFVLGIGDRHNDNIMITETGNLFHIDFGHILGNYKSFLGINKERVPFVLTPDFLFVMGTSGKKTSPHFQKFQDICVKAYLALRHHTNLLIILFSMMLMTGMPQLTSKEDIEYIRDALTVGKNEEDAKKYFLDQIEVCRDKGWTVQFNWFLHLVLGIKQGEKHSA
The experiment in a line: in vitro kinase assay (Scintillation Proximity Assay), PI3K gamma isoform. Format: biochemical. Particulars: SPA, phosphatidylinositol substrate, 60 minutes room temperature. The procedure: To express the recombinant protein, Sf9 (Spodoptera frugiperda 9) insect cells are routinely maintained at densities between 3×10^5 and 3×10^6 cells/ml in serum containing TNMFH medium (Sigma). Sf9 cells, at a density of 2×10^6 are infected with human GST-PI3KγΔ34 baculovirus at a multiplicity of infection (m.o.i.) of 1 for 72 hours. The infected cells are harvested by centrifugation at 1400 g for 4 minutes at 4° C. and the cell pellets are frozen at −80° C. […] Cell lysate (supernatant) is added (usually as 50 ml lysate to 1 ml GST resin in 50 ml tubes) and gently rotated on a mixer at 4° C. for 2-3 hours. The unbound flow through sample is collected by centrifugation at 1000 g for 5 minutes at 4° C. using a DENLEY™ centrifuge. The 1 ml GST resin containing bound material is transferred to a 15 ml FALCON™ centrifuge tube for subsequent washing and elution steps. Firstly a series of 3 cycles of washings (mixing by gentle inversion) is performed with 15 ml ice cold wash Buffer A (50 mM Tris-HCl pH 7.5, 1% Triton X-100, 2 mM DTT) interspersed with centrifugation at 1000 g for 5 minutes at 4° C. A final single wash step is performed with 15 ml ice cold wash Buffer B (50 mM Tris-HCl pH 7.5, 2 mM DTT) and then centrifuged at 1000 g for 5 minutes at 4° C. The washed GST resin is finally eluted with 4 cycles of 1 ml ice cold elution buffer (50 mM Tris-HCl pH 7.5, 10 mM reduced glutathione, 2 mM DTT, 150 mM NaCl, 1 mM NaF, 50% ethylene glycol and protease inhibitors) interspersed with centrifugation at 1000 g for 5 minutes at 4° C. Samples are aliquoted and stored at −20° C.
An in vitro kinase assay was established that measures the transfer of the terminal phosphate of adenosine triphosphate to phosphatidylinositol. The kinase reaction is performed in a white 96 well microtitre plate as a Scintillation Proximiy Assay. […] The reaction is started by the addition of 20 μl of enzyme mix (40 mM Tris, 200 mM NaCl, 2 mM EGTA containing recombinant GST-p110γ).

pIC50: −log10 of the molar value.

Turning to `Cc1nc(NC(=O)NCCc2nnn(C(C)C)n2)sc1-c1ccc(S(C)(=O)=O)c(F)c1` [Example 150, 1-[5-(3-Fluoro-4-methanesulfonyl-phenyl)-4-methyl-thiazol-2-yl]-3-[2-(2-isopropyl-2H-tetrazol-5-yl)-ethyl]-urea], the negative logarithm of the IC50 (pIC50) is 7.25.

Consider `CCC(C)(C)NC(=O)CCNC(=O)Nc1nc(C)c(-c2ccc(S(C)(=O)=O)c(F)c2)s1` [Example 145, N-(1,1-Dimethyl-propyl)-3-{3-[5-(3-fluoro-4-methanesulfonyl-phenyl)-4-methyl-thiazol-2-yl]-ureido}-propionamide], for which the pIC50 was 7.77.

Turning to `CCn1nnc(CNC(=O)Nc2nc(C)c(-c3ccc(S(C)(=O)=O)c(F)c3)s2)n1` [Example 131, 1-(2-Ethyl-2H-tetrazol-5-ylmethyl)-3-[5-(3-fluoro-4-methanesulfonyl-phenyl)-4-methyl-thiazol-2-yl]-urea], the pIC50 was 7.77.

In the case of `Cc1nc(NC(=O)NCC(=O)N(C)C(C)C)sc1-c1ccc(S(C)(=O)=O)c(F)c1` [Example 138, 2-{3-[5-(3-Fluoro-4-methanesulfonyl-phenyl)-4-methyl-thiazol-2-yl]-ureido)-N-isopropyl-N-methyl-acetamide], the negative logarithm of the IC50 (pIC50) is 7.74.

In the case of `Cc1nc(NC(=O)NCc2nnn[nH]2)sc1-c1ccc(S(C)(=O)=O)c(F)c1` [Example 124, 1-[5-(3-Fluoro-4-methanesulfonyl-phenyl)-4-methyl-thiazol-2-yl]-3-(1H-tetrazol-5-ylmethyl)-urea], the negative-log IC50 (pIC50) is 8.15.
